# Reference: patent US20250152602A1, “MODULATION OF AVERSIVE AND SALT TASTES” (California Institute of Technology, priority 2023, published 2025)
# No end group written: not given here.
# What was measured:
# [1] = test system: circulating PGE2; conditions: formalin-induced inflammation
# Protocol: Videos were taken for 1 hr following the injection and analyzed for the time mice spent licking the dorsal hindpaw. Mice with more than 30-sec licking paw time in the first 5 min after injection were used for video analysis. Each mouse was subjected to formalin injection twice: in one hind paw under sated conditions, and another under either sodium depleted or photostimulated conditions. To test the effect of optogenetic stimulation, light stimulation was given at 20 Hz with a 1-sec on 3-sec off paradigm for 60 min.
# Mice were anaesthetized with isoflurane. Blood was collected via heart puncture into EDTA-coated tubes (BD Microtainer, 365974) and kept on ice. Plasma was then separated by centrifugation at 1,500 g for 20 min. ELISA assays were performed following the protocols of PGE2 ELISA kit (Cayman Chemical, 514531), serotonin ELISA kit (Eagle Bio, SER39-KO1), and progesterone ELISA kit (Cayman Chemical, 582601).
# [2] = test system: mice; conditions: thirst; formalin in dorsal hindpaw
# Protocol: Formalin-induced tolerance: Mice were injected with formalin or PBS in the dorsal hindpaw 45-60 min prior to the lick access. Osmotic thirst was induced 10-15 min prior to the lick access. Lick number was recorded for 30 min.
# [3] = test system: SFO^Ptger3 neurons; experiment: Fiber photometry calcium recording from SFO^Ptger3 neurons (GCaMP7s); format: in vivo, mice; conditions: for calcium response of SFO^Ptger3 neurons to control stimuli (normalized ΔF/F): i.p., mannitol 2 M, 10 ml per kg BW, ghrelin 10 μg, LiCl 0.15 M, 15 ml per kg BW
# Protocol: Calcium measurement from SFO^Ptger3 neurons: Mice were headfixed to eliminate the interference from movement. Photometry recording was performed using a commercial photometry system (Neurophotometrics, FP3002). Two LED of different wavelength (470 nm and 415 nm) were bandpass filtered and a patch cord (0.48 NA, Doric lenses) was attached to the photometry system via a 20× objective. The sampling rate was fixed at 40 Hz. Data were acquired with Bonsai (Neurophotometrics) by drawing a region of interest and calculating the mean pixel value, and then were exported to MATLAB for further analysis. The isosbestic signal (415 nm) was fit with a biexponential model and was then linearly scaled to the calcium signal (470 nm). The ΔF/F was calculated as (raw 470-nm signal−fitted 415-nm signal)/(fitted 415-nm signal). For all sessions, stimulus time was recorded through a customized TTL button. During PGE2 activation experiment (FIG. 7C), mice were given PGE2 at a dose of 1 mg per kg BW or DMSO in 100 μl PBS subcutaneously. During other internal-state treatments, mice were exposed to the following stimuli via intraperitoneal injection: 2M mannitol (10 ml per kg BW); […] of ghrelin (in 100 μl PBS), and 0.15M LiCl (15 ml per kg BW). All analysis used the average of 5 min prior to the stimulus as a baseline mean. Normalized ΔF/F was calculated by subtracting the baseline ΔF/F from the mean ΔF/F between 100 and 1500 sec after the stimulus.
# [4] = test system: prostaglandin production; experiment: NSAIDs-induced loss-of-tolerance (lick number, 30 min); format: in vivo, mice; conditions: sodium depletion; ibuprofen 1 mg per ml drinking water three days plus aspirin 40 mg per kg BW i.p., given together
# Protocol: NSAIDs-induced loss-of-tolerance: NSAIDs were used to suppress PGE2 production. Mice were given water supplemented with ibuprofen (1 mg per ml) for three days. On the second day, mice were injected with furosemide to induce sodium depletion. On the third day, aspirin (40 mg per kg BW) was injected intraperitoneally 1-2 hr prior to the lick access. Lick number was recorded for 30 min.
# [5] = test system: SFO; experiment: Fos immunofluorescence after subcutaneous PGE2 injection; format: in vivo, mice
# Protocol: PGE2-induced behavior: PGE2 was injected subcutaneously at a dose of 1 mg per kg BW. Animals had no food or water for 15-90 min before behavioral experiments. For immunohistochemistry, PGE2 was injected at a dose of 3 mg per kg BW and maintained with no food or water for 60 min before euthanasia.
# Mice were euthanized with CO2 and perfused with PBS and 4% paraformaldehyde. Extracted mouse brains were fixed overnight at 4° C. in 4% PFA and sectioned coronally to 100-μm slides via vibratome (Leica, VT-1000 S). The sections were blocked (10% donkey serum, 0.2% Triton X-100 in PBS) for 1 hr at room temperature and incubated with primary antibody at 4° C. overnight. The following primary antibodies were used: rabbit anti-FOS (1:500), sheep anti-Foxp2 (1:2,000), chicken anti-GFP (1:3,000), rat anti-mCherry (1:500), and goat anti-nNos (1:500). The sections were washed three times with PBS and incubated with the secondary antibody (1:500; Jackson Immunoresearch) and DAPI ([…]) for 4 hr under room temperature. After three times wash with PBS, the sections were mounted on the glass slide. All slides were imaged with confocal microscope (Leica, TCS SP8) or slide scanner (Olympus, BX61VS).
# [6] = test system: dopamine release in the nucleus accumbens (NAc); experiment: Dopamine release in the NAc (dLight1.3b fiber photometry) during high-salt consumption; format: in vivo, mice
# Protocol: Dopamine measurement: Mice were freely moving in the chamber with gustometer. Bulk fluorescence signals were collected with a fiber photometry setting as described with the light of 405 nm and 490 nm. The ΔF/F was calculated as (raw 490-nm signal−fitted 405-nm signal)/(fitted 405-nm signal). Mice were induced with osmotic thirst 10-15 min, or sodium depletion 24 hr before the access of 500 mM NaCl. For wild-type mice, under PGE2 activation condition, mice were injected PGE2 at a dose of 1 mg per kg BW subcutaneously 1 hr before the shutter open. For Ptger3cre mice, mice were injected with either CNO or vehicle 20 min before the shutter opened. Lick number was recorded simultaneously with the fluorescence signal collection. The first lick bout was identified with the lick rate more than 3.5 and lick number more than 5, with less than 1-sec interval to the subsequent lick. If no lick bout was detectable (observed with osmotic thirst), any first lick event was included into the data. All baseline signals were calculated by averaging signals between 10-20 sec prior to the first lick. Response amplitude (normalized ΔF/F) was calculated by subtracting the baseline ΔF/F from the mean ΔF/F between 0 and 10 sec after the lick initiated.
# [7] = test system: Ptger3; experiment: PGE2-induced behavior: high-salt consumption / aversive taste tolerance (gustometer lick assay); format: in vivo, mice
# Protocol: Prostaglandin: PGE2 powder was diluted in DMSO at 50 mg/ml as stock. For behavioral assay, we used the final concentration of 1 mg per kg BW in PBS containing 1.7% DMSO (v/v). The same vehicle with DMSO was used as control.
# All assays were performed in a custom gustometer (Dialog Instruments). All animals were at least trained with osmotic thirst and sodium depletion prior to the behavior trials. Animals were trained to drink at least 200 licks for 500 mM NaCl in 30 min under sodium depletion. Generally, two training sessions with sodium depletion are sufficient to achieve this criterion. […] To prevent this, all tastants at lower concentrations were exposed to animals before experiment. For tolerance tests, one-bottle consumption assay was used in order to avoid preference development during the session.
# [8] = test system: SFO/OVLT^Ptger3 neurons; experiment: Chemogenetic inhibition (AAV-DIO-hM4Di + CNO) of LT^Ptger3 neurons, 30-min consumption assay; format: in vivo, mice
# Protocol: Surgery procedures were performed according to methods known in the art. Briefly, ketamine (1 mg/ml) and xylazine (10 mg/ml) in saline were injected intraperitoneally at a dose of 10 ml per kg body weight (BW) for anaesthesia. Ketoprofen was injected subcutaneously at a dose of 5 ml per kg BW. Surgery was performed with a stereotaxic apparatus (Narishige, SR-5M-HT) on a heating pad at 37° C. Virus was delivered with a microprocessor-controlled injection system (World Precision Instruments, Nanolitre 2000) at 100 nl/min. The following coordinates were used: for pre-LC: anterior-posterior (AP), 9,000, medial-lateral (ML), 1,000, ventral-dorsal (VD), 3,800; for SFO: AP, 4,000, ML, 0, VD, 2,500; for OVLT: AP, 2,475, ML, 0, VD, 4,750; for dorsal part of the NAc medial shell: AP, 2,100, ML, 700, VD, 4,000. For optogenetic experiments, virus was delivered unilaterally at a volume of 120-200 nl. Implants were made by gluing a 200-μm fibre bundle (Thorlabs, FT200EMT) to a ceramic ferrule (Thorlabs, CF230-10) with epoxy. The fibre implant was placed 200 μm above the virus injection site. For fiber photometry experiments, virus was delivered at a volume of 150-200 nl (calcium measurement) or 500 nl (dopamine measurement) per region. A 400-μm fiber bundle (Thorlabs, FT400UMT) was used instead. For chemogenetic inhibition experiments, virus was delivered at 180-200 nl per region. For ablation experiments, virus was delivered at 200-250 nl per region. For local knockdown experiments, virus was delivered at 150-200 nl per region. At the end of experiments, all animals were euthanized for histological examination.
# For 30-min access assay, mice were presented with 1 bottle for 30 min and consumption was measured.
# For chemogenetic experiments, clozapine N-oxide (CNO) was administered intraperitoneally at doses of 10 mg per kg BW for inhibition or 1 mg per kg BW for activation 20 min before the consumption trial started. Pure water instead of saline was used as vehicle to avoid sodium repletion.
# [9] = test system: SFO^Ptger3 neurons; experiment: Salt tolerance induced by SFO^Ptger3 photostimulation with or without amiloride; format: in vivo, mice
# Protocol: (§1) For 5-sec brief access assay, mice were presented with 1 bottle of solution for 30 sec per trial for maximum waiting time before the first lick, and 40 sec between trials. After an initial lick, animals were allowed to drink the solution for additional 5 sec before a shutter closed. To avoid taste conditioning effect, animals were tested with only one solution per day. After testing aversive solutions, bitter and high salt, animals sometimes refused to drink any solution. These animals were retrained with water and low salt until their behavioral level recovers to our criteria stated above.
# (§2) For optogenetic activation, 473-nm laser-pulse sequences were delivered via an optic cable (Doric Lenses, MFP—FC-ZF) with pulse generators (World Precision Instruments, SYS-A310 or Quantum composers, Sapphire 9200). The laser intensity was maintained at 10 mW at the tip of the fiber. […] For 5-sec brief access assay, the light stimulation was given at 20 Hz throughout the trial except the paradigm in FIG. 3C.
# [10] = test system: pre-LC^Pdyn neurons; experiment: High-salt licks during pre-LC^Pdyn photostimulation with or without amiloride; format: in vivo, mice
# Protocol: as §1, §2
compound,measurement,setting,value
C=O [formalin],circulating PGE2 levels,[1],increased the PGE2 levels
same,high salt tolerance (500 mM NaCl),[2],partially induced high salt tolerance
same,water intake,[2],unaffected
"ghrelin (GSSFLSPEHQRVQQRKESKKPPAKLQPR; ends and bridges not checked; UniProt Q9UBU3 24-51, looked up) [control stimulus for hunger]",calcium response of SFO^Ptger3 neurons to control stimuli (normalized ΔF/F),[3],no activation
CC(C)Cc1ccc(C(C)C(=O)O)cc1 (stereo not shown) [ibuprofen],salt tolerance (high salt),[4],significantly reduced salt tolerance
"CCCCC[C@H](O)/C=C/[C@H]1[C@H](O)CC(=O)[C@@H]1C/C=C\CCCC(=O)O [PGE2, Prostaglandin E2]",calcium dynamics of SFO^Ptger3 neurons (normalized ΔF/F),[3]; subcutaneous PGE2 1 mg per kg BW vs vehicle,time-locked calcium increases
same,Fos immunofluorescence signals in the SFO,"[5]; peripheral (subcutaneous) PGE2 3 mg per kg BW, Ptger3-dependent",strong Fos immunofluorescence signals
same,Fos signal in the pre-LC,"[5]; subcutaneous PGE2, scramble- and Ptger3-shRNA-injected mice",No Fos signal
same,high-salt consumption during dLight recording,"[6]; thirsty mice, subcutaneous PGE2 1 mg per kg BW",increased high-salt consumption
same,dopamine release in the NAc (dLight1.3b),"[6]; thirsty mice, subcutaneous PGE2, 500 mM NaCl",enhanced dopamine release
same,PGE2-mediated high-salt tolerance,[7]; Ptger3 KD animals,largely abolished
same,PGE2-mediated high-salt tolerance,[7]; Ptger3^Cre/Cre animals,largely abolished
same,salt tolerance (500 mM NaCl consumption),"[7]; osmotic thirst, wild-type or Ptger3^Cre/wt, PGE2 s.c. 1 mg per kg BW",increased salt tolerance
same,appetite (high-salt consumption),"[7]; sated conditions, PGE2 s.c.",did not induce any appetite
OC[C@@H](O)[C@@H](O)[C@H](O)[C@H](O)CO [mannitol],calcium response of SFO^Ptger3 neurons to control stimuli (normalized ΔF/F),[3],no activation
CC(=O)Oc1ccccc1C(=O)O [aspirin],salt tolerance (high salt),[4],significantly reduced salt tolerance
"C[N+]1([O-])CCN(C2=Nc3cc(Cl)ccc3Nc3ccccc32)CC1 [CNO, clozapine N-oxide]",dopamine signals in the NAc (dLight1.3b),"[6]; hM3Dq in SFO^Ptger3 neurons, CNO i.p. 1 mg per kg BW vs vehicle, high-salt ingestion",greatly enhanced
same,tolerance toward aversive salt (500 mM NaCl),"[8]; hypovolemic state, hM4Di in SFO/OVLT, CNO i.p.",drastically suppressed tolerance
same,solute intake (water or high salt),"[8]; osmotic thirst, LT^Ptger3 inhibition",no effect
same,tolerance of low salt with quinine or KCl,"[8]; sodium depletion, LT^Ptger3-inhibited mice",no longer tolerated
same,tolerance of low salt with KCl or quinine,"[8]; sodium depletion, only SFO^Ptger3 neurons inhibited (hM4Di in SFO)",blunted tolerance
same,tolerance toward aversive salt,"[8]; sodium-depleted state, hM4Di in SFO/OVLT, CNO i.p. 10 mg per kg BW",drastically suppressed tolerance
[Cl-].[Li+] [LiCl],calcium response of SFO^Ptger3 neurons to control stimuli (normalized ΔF/F),[3],no activation
N=C(N)NC(=O)c1nc(Cl)c(N)nc1N [amiloride],SFO^Ptger3-mediated salt tolerance,[9],no effect
same,sodium consumption (500 mM NaCl licks) induced by pre-LC^Pdyn photostimulation,[10],no longer induced sodium consumption
